Assay results reported in patent US10966426B2, “Herbicidal compositions comprising phenylpyrimidines” (BASF SE, priority 2016, dated 2021).

How the values were obtained:
Assay type in all cases: in vivo
Echinocloa crus-galli = assay: greenhouse pre-emergence treatment, ECHCG; details: 20 DAT
How it was run: (§1)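 Seeds were sown per species in pots of loamy sand with about 3.0% humus, sprayed with the aqueous spray liquor directly after sowing, watered and hooded until rooted, then kept at 10-25° C. or 20-35° C. for 2 to 4 weeks. Damage was scored 0 (none) to 100 (no emergence/complete destruction).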

Setaria viridis = assay: greenhouse pre-emergence treatment, SETVI; details: SETVI
How it was run: as §1

Bromus sterilis = assay: greenhouse pre-emergence treatment, BROST; details: BROST
How it was run: as §1

Digitaria sanguinalis = assay: greenhouse pre-emergence treatment, DIGSA; details: DIGSA; for % activity, solo application: 62.5 gai/ha
How it was run: as §1

Alopecurus myosuroides = assay: greenhouse pre-emergence treatment, ALOMY
How it was run: as §1

Helianthus annuus = assay: greenhouse pre-emergence treatment, HELAN; details: HELAN
How it was run: as §1

BRAPL = assay: greenhouse pre-emergence treatment, BRAPL; details: Table X9, 21 DAT, solo Ex. 5 125 gai/ha
Lolium perenne = assay: greenhouse post-emergence treatment, LOLPE; details: 20 DAT, 2nd series of rows
Method: The culture containers used were plastic pots containing loamy sand with approximately 3.0% of humus as substrate. The seeds of the test plants were sown separately for each species.
To this end, the test plants were either sown directly, and grown in the same containers, or they were first grown separately as seedlings and transplanted into the test containers a few days prior to treatment.
Depending on the species, the plants were kept at 10-25° C. and 20-35° C., respectively.
The test period extended over 2 to 4 weeks. During this time, the plants were tended and their response to the individual treatments was evaluated.
Evaluation was carried out using a scale from 0 to 100. 100 means no emergence of the plants, or complete destruction of at least the above-ground parts, and 0 means no damage or normal course of growth. A good herbicidal activity is given at values of at least 70, and very good herbicidal activity is given at values of at least 85.
In the examples, the solvent used was water.
In the examples below, using the method of S. R. Colby (1967) “Calculating synergistic and antagonistic responses of herbicide combinations”, Weeds 15, p. […] E=X+Y−(X·Y/100) where X=effect in percent using herbicide A at an application rate a; • Y=effect in percent using herbicide B at application rate b; • E=expected effect (in %) of herbicide A+herbicide B at application rates a+b.

[1] = solo Ex. 5 31.25 gai/ha, 20 DAT
[2] = Table X9, 21 DAT, solo Ex. 5 125 gai/ha
[3] = Table X13, 20 DAT, solo Ex. 5 31.25 gai/ha
[4] = 20 DAT, solo Ex. 5 31.25 gai/ha

Structure (SMILES): O=C(O)c1nc(C2CC2)ncc1-c1ccccc1Cl [Ex. 5]
- % activity (Echinocloa crus-galli; Ex. 5 solo, 62.5 gai/ha): 85%
- % activity (Echinocloa crus-galli; solo, 31.25 gai/ha): 95%
- % activity (Echinocloa crus-galli; solo, 125 gai/ha): 95%
- % activity, solo application (Setaria viridis; 31.25 gai/ha, 20 DAT, Table X6): 0%
- % activity, solo application (Setaria viridis; 125 gai/ha, 20 DAT, Table X1): 45%
- % activity, solo application (Setaria viridis; 125 gai/ha, 20 DAT, Table X2): 60%
- % activity, solo application (Setaria viridis; 125 gai/ha, 20 DAT, Table X6): 60%
- % activity, solo application (Setaria viridis; 250 gai/ha, 20 DAT, Table X1): 65%
- % activity (Setaria viridis; Ex. 5 solo, 125 gai/ha, 20 DAT): 50%
- % activity (Setaria viridis; 20 DAT, solo Ex. 5 62.5 gai/ha): 30%
- % activity (Setaria viridis; 20 DAT, solo Ex. 5 125 gai/ha): 50%
- % activity (Setaria viridis; [1]): 35%
- % activity (Setaria viridis; solo Ex. 5 125 gai/ha, 20 DAT): 45%
- % activity (Setaria viridis; [2]): 50%
- % activity (Setaria viridis; [3]): 20%
- % activity (Setaria viridis; Table X13, 20 DAT, solo Ex. 5 62.5 gai/ha): 35%
- % activity (Setaria viridis; solo, 31.25 gai/ha, 20 DAT): 10%
- % activity (Setaria viridis; solo, 62.5 gai/ha, 21 DAT): 45%
- % activity (Setaria viridis; solo, 125 gai/ha, 20 DAT): 45%
- % activity (Setaria viridis; solo, 125 gai/ha, 21 DAT): 60%
- % activity (Setaria viridis; solo, 250 gai/ha, 21 DAT): 65%
- % activity, solo application (Bromus sterilis; 62.5 gai/ha, 20 DAT, Table X1): 65%
- % activity, solo application (Bromus sterilis; 125 gai/ha, 20 DAT, Table X1): 80%
- % activity, solo application (Bromus sterilis; 125 gai/ha, 20 DAT, Table X6): 65%
- % activity (Bromus sterilis; [4]): 5%
- % activity (Bromus sterilis; solo, 62.5 gai/ha, 20 DAT): 45%
- % activity (Bromus sterilis; solo, 125 gai/ha, 21 DAT): 75%
- % activity, solo application (Digitaria sanguinalis; 20 DAT, Table X2): 65%
- % activity, solo application (Digitaria sanguinalis; 20 DAT, Table X6): 65%
- % activity (Digitaria sanguinalis; [4]): 40%
- % activity (Digitaria sanguinalis; [2]): 90%
- % activity (Digitaria sanguinalis; Table X13, 20 DAT, solo Ex. 5 125 gai/ha): 90%
- % activity (Digitaria sanguinalis; solo, 31.25 gai/ha, 20 DAT): 65%
- % activity (Digitaria sanguinalis; solo, 125 gai/ha, 21 DAT): 60%
- % activity (Digitaria sanguinalis; solo, 250 gai/ha, 21 DAT): 65%
- % activity (Alopecurus myosuroides; [3]): 90%
- % activity (Alopecurus myosuroides; [1]): 90%
- % activity (Alopecurus myosuroides; solo Ex. 5 62.5 gai/ha, 20 DAT): 90%
- % activity, solo application (Helianthus annuus; 31.25 gai/ha, 20 DAT, Table X6): 0%
- % activity, solo application (Helianthus annuus; 62.5 gai/ha, 20 DAT, Table X1): 35%
- % activity, solo application (Helianthus annuus; 125 gai/ha, 20 DAT, Table X2): 40%
- % activity, solo application (Helianthus annuus; 125 gai/ha, 20 DAT, Table X6): 40%
- % activity (Helianthus annuus; Ex. 5 solo, 125 gai/ha, 20 DAT): 60%
- % activity (Helianthus annuus; [4]): 0%
- % activity (Helianthus annuus; 20 DAT, solo Ex. 5 62.5 gai/ha): 0%
- % activity (Helianthus annuus; solo, 31.25 gai/ha, 20 DAT): 0%
- % activity (Helianthus annuus; solo, 62.5 gai/ha, 20 DAT): 0%
- % activity (Helianthus annuus; solo, 125 gai/ha, 20 DAT): 0%
- % activity (Helianthus annuus; solo, 125 gai/ha, 21 DAT): 50%
- % activity (Helianthus annuus; solo, 250 gai/ha, 21 DAT): 80%
- % activity (BRAPL): 90%
- % activity (Lolium perenne; solo Ex. 5 15 gai/ha): 85%
- % activity (Lolium perenne; solo Ex. 5 62.5 gai/ha): 80%
- % activity (Lolium perenne; solo Ex. 5 250 gai/ha): 85%
- % activity (Lolium perenne; solo Ex. 5 500 gai/ha): 85%
